Data published in US10160785B2, “Antimicrobial peptides and their use for the treatment of topical infections” (priority 2015, dated 2018).

Key:
[1] = system: Candida krusei ATCC 6258; experiment: microbe, parasite or virus in culture; type: cell-based; conditions: RPMI broth microdilution, 35° C., 48 hours, visual
Summary of the method: (§1)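 Broth microdilution in RPMI 1640 with 0.165 mol.l^−1 MOPS; peptide dilutions of 0.625–160 μmol.l^−1 were added to wells, then inoculum at 5×10^2–2.5×10^3 CFU/ml final. Plates were incubated unshaken at 35 °C. MIC was read visually at 48 h as the lowest concentration without visible growth.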

[2] = system: Candida dubliniensis ATCC MYA-646; experiment: microbe, parasite or virus in culture; type: cell-based; conditions: RPMI broth microdilution, 35° C., 48 hours, visual
Summary of the method: as §1

[3] = system: Candida glabrata ATCC 2001; experiment: microbe, parasite or virus in culture; type: cell-based; conditions: RPMI broth microdilution, 35° C., 48 hours, visual
Summary of the method: as §1

[4] = system: Candida albicans ATCC MYA-2876; experiment: microbe, parasite or virus in culture; type: cell-based; conditions: RPMI broth microdilution, 35° C., 48 hours, visual
Summary of the method: as §1

[5] = system: Candida glabrata DSY 565; experiment: microbe, parasite or virus in culture; type: cell-based; conditions: RPMI broth microdilution, 35° C., 48 hours, visual
Summary of the method: as §1

[6] = system: Candida albicans (Olomouc); experiment: microbe, parasite or virus in culture; type: cell-based; conditions: RPMI broth microdilution, 35° C., 48 hours, visual
Summary of the method: as §1

[7] = system: Candida tropicalis ATCC 750; experiment: microbe, parasite or virus in culture; type: cell-based; conditions: RPMI broth microdilution, 35° C., 48 hours, visual
Summary of the method: as §1

[8] = system: P. aeruginosa (Liberec); experiment: Synergistic effect of peptides with antibiotics, FIC index; type: cell-based, Pseudomonas aeruginosa; conditions: FIC <0.5 synergism, 0.5-2 additive, >2 antagonism, averages of three experiments; for FIC indexes (fractional inhibitory concentration) Combination with RIF against P. aeruginosa: peptide combined with rifampicin; for FIC indexes (fractional inhibitory concentration) Combination with TET against P. aeruginosa: peptide combined with tetracycline
Description: (§2) MICs values of various combinations of two fold serial dilutions of peptides and antibiotics were determined using the same methodology as in the case of antimicrobial activity determination (Example 2). To consider the type of the final effect, FIC indexes (fractional inhibitory concentration) were used and calculated as follows:
(§3) [formula] where MICPC and MICAC are the MICs of the peptide and antibiotic in combination, respectively, and MICP and MICA are the MICs of the peptide and antibiotic tested alone, respectively. FIC<0.5 were considered as synergy, 0.5≤FIC≤2 as addition effect, and FIC>2 as antagonism.

[9] = in vitro; conditions: human
Summary of the method: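 Hemolysis expressed as LC50, the concentration giving 50% erythrocyte lysis. Supernatant A540 was scaled between buffer-only blank and 0.2% Triton X100 total lysis after 1 h, 37 °C exposure of 5% v/v human red cells to 2-200 μmol.l^−1 peptide in physiological solution.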

[10] = system: Methicillin resistant Staphylococcus aureus (MRSA) 6271; conditions: 37° C., 20 h
Description: (§4) Gram-positive bacteria (Micrococcus luteus, Bacillus subtilis, Staphylococcus aureus, Staphylococcus epidermidis and Enterococcus faecalis), Gram-negative bacteria (Escherichia coli and Pseudomonas aeruginosa) and the yeast (Candida albicans) were grown to exponential phase and then were diluted with fresh medium. BHI medium (Oxoid, Great Britain) was used for Enterococcus faecalis; YPD medium containing yeast extract peptone and glucose was used for Candida albicans and LB medium (Sigma, Czech Republic) was used for the remaining microorganisms. Then the microorganisms were added to the solutions of the tested antimicrobial peptides in LB medium in multi-well plates. The final peptide concentration it the wells was in the range of 0.1 to 100 μmol.l^−1. That was made by twofold serial dilution from the peptide stock solution (1 mmol.l^−1). The plates were incubated at 37° C. for 20 h while being continuously shaken in a Bioscreen C (Oy Growth Curves AB Ltd., Helsinki, Finland). Absorbance was measured at 540 nm every 15 min. Antimicrobial activity (Table 2) was determined as a quantitative minimum inhibitory concentration (MIC) by observing bacterial growth in the presence of different concentrations of tested peptides. In the experiments ca 10^5 CFU of bacteria or candida per well were routinely used.
(§5) Multiresistant clinical isolates of bacteria were obtained from University Hospital in Motol, Prague, Czech Republic and from Liberec Regional Hospital, Czech Republic. Methicillin resistant Staphylococcus aureus (MRSA) 6271 and Pseudomonas aeruginosa 5482 were from the Czech National Collection of Type Cultures, the National Institute of Public Health, Prague, Czech Republic. Other bacteria were from the Czech Collection of Microorganisms, Brno, Czech Republic. Candida albicans came from the Faculty of Medicine, Palacky University, Olomouc, Czech Republic.

[11] = system: Bacillus subtilis; conditions: Bacillus subtilis; 37° C., 20 h
Description: as §4, §5

[12] = system: Escherichia coli; conditions: 37° C., 20 h
Description: as §4, §5

[13] = system: Pseudomonas aeruginosa 5482; conditions: 37° C., 20 h
Description: as §4, §5

[14] = system: Staphylococcus epidermidis Motol; conditions: 37° C., 20 h
Description: as §4, §5

[15] = system: Candida albicans Olomouc; conditions: Candida albicans Olomouc; YPD medium; 37° C., 20 h (Example 2)
Description: as §4, §5

[16] = system: Staphylococcus aureus Liberec; conditions: Staphylococcus aureus Liberec clinical isolate; 37° C., 20 h
Description: as §4, §5

[17] = system: Pseudomonas aeruginosa Liberec; conditions: Pseudomonas aeruginosa Liberec; 37° C., 20 h
Description: as §4, §5

[18] = system: Enterococcus faecalis Motol; conditions: BHI medium, 37° C., 20 h
Description: as §4, §5

[19] = system: Micrococcus luteus; conditions: Micrococcus luteus; 37° C., 20 h
Description: as §4, §5

[20] = system: Staphylococcus aureus Motol; conditions: Staphylococcus aureus Motol clinical isolate; 37° C., 20 h
Description: as §4, §5

[21] = system: S. aureus (Liberec); experiment: Synergistic effect of peptides with antibiotics, FIC index; type: cell-based, Staphylococcus aureus; conditions: peptide combined with amoxicillin; FIC <0.5 synergism, 0.5-2 additive, >2 antagonism; averages of three experiments
Description: as §2, §3

Substance | Antifungal activity MIC C. krusei ATCC 6258 [1] [µM] | Antifungal activity MIC C. dubliniensis ATCC MYA-646 [2] [µM] | Antifungal activity MIC C. glabrata ATCC 2001 [3] [µM] | Antifungal activity MIC C. albicans ATCC MYA-2876 [4] [µM] | Antifungal activity MIC C. glabrata DSY 565 [5] [µM] | Antifungal activity MIC C. albicans Olomouc [6] [µM] | Antifungal activity MIC C. tropicalis ATCC 750 [7] [µM] | FIC indexes (fractional inhibitory concentration) Combination with RIF against P. aeruginosa [8] | FIC indexes (fractional inhibitory concentration) Combination with TET against P. aeruginosa [8] | HC50 at 1 h [9] [µM] | Antimicrobial activity MIC S. a. 6271 [10] [µM] | Antimicrobial activity MIC B. s. [11] [µM] | Antimicrobial activity MIC E. c. [12] [µM] | Antimicrobial activity MIC P. a. 5482 [13] [µM] | Antimicrobial activity MIC S. e. Motol [14] [µM] | Antimicrobial activity MIC C. a. Olomouc [15] [µM] | Antimicrobial activity MIC S. a. Liberec [16] [µM] | Antimicrobial activity MIC P. a. Liberec [17] [µM] | Antimicrobial activity MIC E. f. Motol [18] [µM] | Antimicrobial activity MIC M. l. [19] [µM] | other results
H-GILSKLLKKLKKIIAK-NH2 [XI] | 5.0 | 10.5 | 26.0 | 20.0 | 40.0 | 12.0 | 1.0 | 0.344 | 0.646 | > 400 | 22.7 | 1.4 | 17.5 | 4.5 | 1.8 | 45.3 | 5.9 | 8.5 | 72.7 | 1.6 | Antimicrobial activity MIC S. a. Motol [20]: 10.0 µM; FIC indexes (fractional inhibitory concentration) Combination with AMX against S. aureus [21]: 0.333
H-GILKSLLKKLKKIIAK-NH2 [X] | 5.0 | 14.0 | 34.0 | 17.0 | 71.1 | 10.5 | 1.0 | 0.333 | 0.521 | > 400 | 16.5 | 1.5 | 10.0 | 5.0 | 2.2 | 24.0 | 4.3 | 8.9 | 76.7 | 1.4 | Antimicrobial activity MIC S. a. Motol [20]: 10.0 µM; FIC indexes (fractional inhibitory concentration) Combination with AMX against S. aureus [21]: 0.542
H-GIWSSLLKKLKKIIAK-NH2 [XIV] | 5.2 | 9.0 | 19.1 | 10.0 | 48.0 | 8.2 | 1.2 | 0.271 | 0.354 | 165 | 20.0 | 0.8 | 1.6 | 6.3 | 1.5 | 16.0 | 4.6 | 21.0 | 46.0 | 0.8 | Antimicrobial activity MIC S. a. Motol [20]: 5.3 µM; FIC indexes (fractional inhibitory concentration) Combination with AMX against S. aureus [21]: 0.396
H-KILSSLLKKLKKIIAK-NH2 [VI] | 4.8 | 12.0 | 28.0 | 20.0 | 71.1 | 12.0 | 0.9 | 0.260 | 0.708 | 364 | 32.0 | 1.3 | 16.0 | 5.0 | 1.4 | 25.3 | 5.5 | 16.0 | 32.5 | 1.0 | Antimicrobial activity MIC S. a. Motol [20]: 10.0 µM; FIC indexes (fractional inhibitory concentration) Combination with AMX against S. aureus [21]: 0.292
H-GILSSWLKKLKKIIAK-NH2 [XV] | 8.0 | 22.0 | 40.0 | 17.0 | 88.9 | 21.0 | 1.2 | 0.396 | 0.646 | > 400 | 16.0 | 1.6 | 11.0 | 4.0 | 2.0 | 16.7 | 6.6 | 5.9 | 73.3 | 1.6 | Antimicrobial activity MIC S. a. Motol [20]: 16.2 µM; FIC indexes (fractional inhibitory concentration) Combination with AMX against S. aureus [21]: 0.375
